Source: patent publication US8058510B2, “Method and means to modulate programmed cell death in eukaryotic cells” (Bayer Bioscience N.V., priority 1998, dated 2011)
Entries after “also recorded” stand apart in the source; their conditions may differ.

Legend:
APP [1] = molecular target: T1, APP (Arabidopsis thaliana, UniProt Q11207); assay: In situ detection of poly(ADP-ribose) polymer with 10H monoclonal antibody in yeast spheroplasts expressing APP; type: cell-based; parameters: The full-length app cDNA was placed in pYeDP1/8-2 under the control of a galactose-inducible yeast promoter; expressed in transfected cells; host or cells: Saccharomyces cerevisiae strain DY transformed with pV8SPA, grown on galactose; conditions: DY(pV8SPA) cells grown on galactose in the presence of the inhibitor
Description: In situ antigen localization in yeast cells was carried out as described (Harlow and Lane, 1988). For the localization of the APP protein in yeast spheroplasts, anti-APP serum was diluted 1:3,000 to 1:5,000 in Tris-buffered saline-BSA buffer. 10H monoclonal antibody, which specifically recognizes poly(ADP-ribose) polymer (Ikajima et al., 1990) was used in a 1:100 dilution in PBS buffer. The mouse antibody were detected with the sheep anti-mouse IgG F(ab′)2 fragment conjugated to fluorescein isothiocyanate (FITC) (Sigma) at a dilution of 1:200. Rabbit IgG was detected with CY-3 conjugated sheep anti-rabbit IgG sheep F(ab)2 fragment (Sigma), at a dilution of 1:200. For the visualization of DNA, slides were incubated for 1 min in PBS with 10 μg ml^−1 of 4′,6-diamidino-2-phenylindole (DAPI; Sigma). Fluorescence imaging was performed on an Axioskop epifluorescence microscope (Zeiss, Jena, Germany). For observation of FITC and CY-3 fluorochromes, 23 and 15 filter cubes were used, respectively. Cells were photographed with Fuji Color-100 super plus film.
In addition, we tested whether APP was constitutively active in yeast cells, as has been reported for the human PARP (Collinge and Althaus, 1994). […] A positive yellowish-green fluorescence signal with 10H antibody was localized in the nucleus and was observed only in DY(pV8SPA) cells grown on galactose.

[2] = tested on: differentiating cells of Zinnia or of Helianthus tuberosum; conditions: literature; cited from earlier work
tobacco = conditions: Puchta et al., 1995; cited from earlier work
APP [3] = molecular target: T1, APP; assay: Poly(ADP-ribose) polymerase activity assay in total protein extracts of yeast expressing APP
[4] = tested on: Arabidopsis shoots (C24; Columbia); assay: Fitness assay Arabidopsis (TTC-assay); type: in vivo; conditions: 2 mM niacinamide in incubation medium, about 20 hours; lines C24 and Columbia

Molecule | positive staining with 10H antibody (poly(ADP-ribose) polymers) in the nucleus (APP [1]) | development of tracheary elements [2] | rates of homologous intrachromosomal recombination (tobacco) | synthesis of poly(ADP-ribose) (APP [3]; 3ABA 3 mM in the reaction mix, nucleic acid depleted DY(pV8SPA) extract, FIG. 5B lane 5) | radioactivity incorporated into polymer (APP [3]; yeast strain grown with 3ABA (3 mM) versus without, 3ABA removed from extracts during desalting, FIG. 5A lane 1 vs 2) | TTC-reducing capacity [4] | radioactivity incorporated into poly(ADP-ribose), 40 μg/ml DNA versus 2 μg/ml DNA (APP [3]; sonicated salmon sperm DNA, phosphor-image scanning, FIG. 5B lanes 4 and 2)
NC(=O)c1cccc(N)c1 [3ABA, 3-aminobenzamide] | greatly reduced | prevent development of tracheary elements | increased | sensitive; also recorded: blocked | More radioactivity was incorporated into polymer | – | –
O=c1[nH]c2ccccc2c2ccccc12 [6(5H)-phenasthridinone] | – | prevent development of tracheary elements | – | – | – | – | –
NC(=O)c1cccnc1 [nicotinamide] | greatly reduced | prevent development of tracheary elements | – | – | – | higher TTC-reducing capacity | –
APP: NAP protein of Arabidopsis thaliana (SEQ ID No 6), non-conventional PARP, expressed in yeast (protein, listed as Arabidopsis thaliana) MANKLKVDELRLKLAERGLSTTGVKAVLVERLEEAIAEDTKKEESKSKRKRNSSNDTYESNKLIAIGEFRGMIVKELREEAIKRGLDTTGTKKDLLERLCNDANNVSNAPVKSSNGTDEAEDDNNGFEEEKKEEKIVTATKKGAAVLDQWIPDEIKSQYHVLQRGDDVYDAILNQTNVRDNNNKFFVLQVLESDSKKTYMVYTRWGRVGVKGQSKLDGPYDSWDRAIEIFTNKFNDKTKNYWSDRKEFIPHPKSYTWLEMDYGKEENDSPVNNDIPSSSSEVKPEQSKLDTRVAKFISLICNVSMMAQHMMEIGYNANKLPLGKISKSTISKGYEVLKRISEVIDRYDRTRLEELSGEFYTVIPHDFGFKKMSQFVIDTPQKLKQKIEMVEALGEIELATKLLSVDPGLQDDPLYYHYQQLNCGLTPVGNDSEEFSMVANYMENTHAKTHSGYTVEIAQLFRASRAVEADRFQQFSSSKNRMLLWHGSRLTNWAGILSQGLRIAPPEAPVTGYMFGKGVYFADMFSKSANYCYANTGANDGVLLLCEVALGDMNELLYSDYNADNLPPGKLSTKGVGKTAPNPSEAQTLEDGVVVPLGKPVERSCSKGMLLYNEYIVYNVEQIKMRYVIQVKFNYKH | – | – | – | – | – | – | ~6 fold
